From the METLIN SMRT retention time set (Domingo-Almenara et al. 2019)

Assay: gradient 5% acetonitrile 3 min, to 50% in 2 min, to 85% in 15 min, held 3 min, 100 µL/min
Conditions: column: Zorbax Extend-C18 2.1 x 50 mm; eluents: water / acetonitrile, 0.1% formic acid
How it was run: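 Retention times of pure standards were taken from adduct peaks that were selected by computer and manually inspected. Over 3 months, mixtures of ~100 molecules were run by HPLC–quadrupole time-of-flight mass spectrometry in positive and negative ionization mode. The Zorbax Extend-C18 column (2.1 × 50 mm, 1.8 μm) ran at 100 μL/min in water and acetonitrile, each containing 0.1% formic acid, with 40 μL dead volume and 900 μL dwell volume.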

| RP-LC retention time [s] | SMILES |
| --- | --- |
| 810 | COc1ccccc1C(=O)Nc1ccc2c(c1)Sc1ncccc1C(=O)N2C |
| 665 | O=C1NCCOCCCN(C(=O)Nc2ccc3c(c2)OCCO3)[C@H]2CCCC[C@@H]12 |
| 598 | CN(C)CCNCc1ccc(-c2ccc(Br)cc2)o1 |
| 1230 | Cc1nc(-c2cccc(-c3noc(-c4ccc5cc[nH]c5c4)n3)c2)cs1 |
| 645 | O=C(CCCn1c(=O)c2cccn2c2ccc(F)cc21)NCCCN1CCCCCC1 |
| 659 | CC(C)NC(=O)c1nc2ccccc2n(C)c1=O |
| 601 | CC1CCN(Cc2nnc(-c3ccccc3)o2)CC1 |
| 777 | Cc1cccc(Cn2nc3c(S(=O)(=O)N4CCOCC4)cccn3c2=O)c1 |
| 876 | O=C(Nc1ccccc1)C1CCCN(S(=O)(=O)c2c[nH]c(C(=O)N3CCCCCC3)c2)C1 (centres undefined) |
| 1000 | COc1ccc(OC)c(NC(=O)N(C)CCc2noc(COc3ccc(Cl)cc3)n2)c1 |
| 738 | O=C([C@H]1C[C@@H](F)CN1S(=O)(=O)c1ccc(C(F)(F)F)cc1)N1CCOCC1 |
| 794 | CCOC(=O)c1ccc(NC(=O)Cn2c(N3CCOCC3)nc(CC)cc2=O)cc1 |
| 656 | Cc1ccc(-c2nccn3cc(C(=O)N4CCN(CC(C)C)CC4)nc23)cc1 |
| 700 | Cc1cc(=O)n(CC(=O)Nc2ccc(F)c(F)c2)c(N2CCCCC2)n1 |
| 878 | CCOC(=O)C1CCN(C(=O)C2CCN(S(=O)(=O)c3ccc(OCC)cc3)CC2)CC1 |
| 996 | Cc1ccccc1N1CCN(C(=O)c2ccnc(N3CCCC3)n2)CC1 |
| 553 | CCCn1c(C)cnc1C1CN(C(=O)C(C)C)C1 |
| 862 | O=C(Nc1ccc(Cl)cc1)C1CCCN(S(=O)(=O)c2c[nH]c(C(=O)N3CCCC3)c2)C1 (centres undefined) |
| 1160 | CCOC(=O)c1ccccc1NC(=O)Cn1cccc(-c2nc(-c3ccc(Cl)cc3)no2)c1=O |
| 725 | CCC(C)C(NC(=O)c1cc(OC)c(OC)c(OC)c1)C(=O)Nc1nc2ccccc2[nH]1 (centres undefined) |
| 710 | O=C(Cc1cccc(F)c1)NC1CCN(c2cc(-c3cccs3)[nH]n2)C1 (centres undefined) |
| 1120 | Cc1ccccc1-n1c(=O)c2sccc2n(Cc2nc(-c3ccc(C(F)(F)F)cc3)no2)c1=O |

| RP-LC retention time [s] | SMILES |
| --- | --- |
| 561 | COCCn1c(C2CCN(C(=O)c3cccc(Cl)c3)C2)nc2ccncc21 (centres undefined) |
| 877 | COc1ccc(-n2ccc(=O)c(-c3nc(-c4ccccc4Cl)no3)n2)cc1 |
| 792 | O=C(Nc1ncc([N+](=O)[O-])s1)c1c2c(nn1C1CCS(=O)(=O)C1)CCC2 (centres undefined) |
| 1050 | O=c1ccc(-c2ccc3c(c2)OCO3)nn1CCc1nc(-c2ccc(Br)cc2)no1 |
| 725 | COc1ccc2c(c1)CC(C(=O)N1CCN(C(=O)c3ccco3)CC1)CO2 (centres undefined) |
| 1070 | Cc1c(-c2noc(-c3ccccc3)n2)nnn1-c1ccc(F)cc1 |
| 760 | CCCc1cc(C2CCCN2C(=O)Cc2ccc(OC)c(OC)c2)no1 (centres undefined) |
| 580 | CCn1ccc(C(=O)N2C[C@@H]3CCCN4CCC[C@@H]([C@H]34)[C@H]2CCCC(=O)N2CCOCC2)n1 |
| 680 | Cc1ccccc1NC(=O)NCC(c1cccnc1)c1cn(C)c2ccccc12 (centres undefined) |
| 683 | COc1ccc(Cn2c(=O)n(C)c3ncncc32)cc1F |
| 690 | Cc1ccn2c(Nc3ccc4c(c3)OCO4)c(-c3ccccc3)nc2c1 |
| 899 | O=S(=O)(CCc1noc(-c2ccc3c(c2)OCO3)n1)c1ccccc1 |
| 789 | CCc1ccc(NC(=O)N2CCC(N3CCN(Cc4ccccc4)C(=O)C3=O)CC2)cc1 |
| 1060 | COc1ccc(Cl)cc1-c1nc(-c2ccc3oc(C)nc3c2)no1 |
| 619 | Cc1nc2n(c(=O)c1C)CCN2CC(=O)NCc1cccs1 |
| 624 | COCCNC(=O)C1Cn2cccc2C(=O)N1CC(C)C (centres undefined) |
| 1020 | Cc1ccccc1-c1noc(C2CCCN2C(=O)Nc2ccccc2F)n1 (centres undefined) |
| 926 | CN(Cc1ccccc1)S(=O)(=O)c1cc2c3c(c1)CCC(=O)N3CCC2 |
| 809 | CCn1c(N2CCCC(C(=O)NCc3ccc(SC)cc3)C2)cc(=O)n(C)c1=O (centres undefined) |
| 566 | O=C(NCC#CCN1CCc2ccccc2C1)NC1CCCCC1 |
| 729 | CCOC(=O)c1c(C)c(-c2ccccc2)n(CC(=O)N2CCN(c3ccccn3)CC2)c1C |
| 818 | COc1ccc(S(=O)(=O)N2CCCC(C(=O)Nc3c(F)cccc3F)C2)cc1OC (centres undefined) |

| RP-LC retention time [s] | SMILES |
| --- | --- |
| 754 | COc1cc(NC(=O)C2CCN(C(=O)C3Sc4ccccc4NC3=O)CC2)cc(OC)c1 (centres undefined) |
| 715 | CCN1C(=O)CCc2cc(NC(=O)c3ccsc3)ccc21 |
| 731 | O=C(COc1ccccc1)N1CCCCC1c1nncn1CC1CC1 (centres undefined) |
| 950 | COC(=O)C(C)n1cc(-c2nc(-c3ccc(Cl)cc3)no2)ccc1=O (centres undefined) |
| 1040 | Cc1nc2c(sc3nc(-c4ccccc4)ccc32)c(=O)n1CC(=O)Nc1ccc(F)cc1 |
| 687 | CCOc1ccc(CNC(=O)c2cn3ccccc3n2)cc1 |
| 824 | COCCCn1c(C)c(C)c(S(=O)(=O)c2ccccc2)c1NC(=O)C1CCCO1 (centres undefined) |
| 853 | CCn1ccc(NC(=O)Nc2cc(C)cc(C)c2)n1 |
| 904 | Cc1ccc(NC(=O)N2CCC3(CC2)NC(=O)c2cc(Cl)ccc2N3C)cc1C |
| 1090 | CCn1c(=O)c2ccccc2n(Cc2nc(-c3cccc(Cl)c3)no2)c1=O |
| 894 | CC(c1ccccc1)N1CC(=O)N(c2cccc(Cl)c2)[C@@H]2CS(=O)(=O)C[C@@H]21 (some centres undefined) |
| 1090 | COc1ccc(S(=O)(=O)Cc2nc(-c3cccc(Br)c3)no2)cc1 |
| 785 | CCCn1c(=O)c2c(ncn2C)n(CCC)c1=O |
| 905 | COc1ccc(Cn2nc3c(S(=O)(=O)N4CCN(c5ccc(F)cc5)CC4)cccn3c2=O)cc1 |
| 756 | CC(NC(=O)c1ccccc1)c1nc(-c2ccc3c(c2)nnn3C)no1 (centres undefined) |
| 574 | Cn1cc(S(=O)(=O)N2CCOCC2)cc1C(=O)N1CCN(c2ccccn2)CC1 |
| 919 | Cc1ccc(CNC(=O)C2(C)CN(S(C)(=O)=O)CC(=O)N2c2ccc(Cl)cc2C)cc1 (centres undefined) |
| 773 | CCN1c2ccc(F)cc2C(=O)NC12CCN(C(=O)c1ccc(OC)cc1)CC2 |
| 798 | COc1ccc(Cl)cc1NC(=O)Cn1cnc2nc3c(cc2c1=O)CCCC3 |
| 1040 | COc1ccc(OC)c(NC(=O)Cn2cnc3c(sc4nc(-c5ccccc5)ccc43)c2=O)c1 |
| 951 | CC(=O)N1c2ccc(S(=O)(=O)N3CCCCCC3)cc2CC1C(=O)NCc1ccc(Cl)cc1 (centres undefined) |
| 641 | Cc1cc(C(=O)N2CCC(c3noc(-c4cnccn4)n3)C2)nn1C (centres undefined) |

| RP-LC retention time [s] | SMILES |
| --- | --- |
| 721 | Cc1ccc(-c2nc3cc(C)ccn3c2Nc2ccc3c(c2)OCCO3)cc1 |
| 635 | Cc1ccc(N2C(=O)CCS2(=O)=O)cc1S(=O)(=O)N1CCN(c2ccccn2)CC1 |
| 1010 | COc1cc2c(cc1CNC(=O)COc1ccc(Cl)c(C)c1)OCCCO2 |
| 604 | O=C(c1ccc(-c2cccs2)nc1)N1CCN(c2ccccn2)CC1 |
| 858 | O=C(NCc1nn(Cc2ccccc2)c2ccccc12)c1cnccn1 |
| 694 | CCOCC(=O)N1CCC2(CC1)C(=O)N(C)c1ccccc12 |
| 588 | CC(C)c1nc2ccc(C(=O)NCCCN3CCN(C4CCCCC4)CC3)cc2o1 |
| 835 | COCCCNC(=O)C1CCN(c2nc3ccc(-c4ccccc4)nc3s2)CC1 |
| 855 | CC(C)OCCCNC(=O)c1cc2n(n1)CCCN(Cc1ccc(Cl)cc1)C2=O |
| 942 | Cc1ccc(S(=O)(=O)N2CCC(C)(C(=O)NCc3ccc(F)cc3)CC2)cc1 |
| 1300 | CCOc1ccc(-c2nc(-c3cccc(-c4ccnn4CC)c3)no2)cc1OCC |
| 806 | O=C(COc1cccc2c(=O)[nH]ccc12)c1ccccc1 |
| 661 | COCCNC(=O)NCCS(=O)(=O)N1CCN(c2cccc(C)c2)CC1 |
| 963 | COc1ccc(N2CC(c3nc(-c4ccc(C(F)(F)F)cc4)no3)CC2=O)cc1OC (centres undefined) |
| 856 | O=C(Nc1ccc(Cl)cc1F)C1CCc2nc(N3CCOCC3)ncc2C1 (centres undefined) |
| 958 | CC(C)Oc1ccc(CNC(=O)c2ccc3c(c2)N(C)C(=O)c2ccccc2O3)cc1 |
| 1200 | COc1ccc(N2CC(c3noc(-c4ccc(C(C)(C)C)cc4)n3)CC2=O)cc1 (centres undefined) |
| 628 | CC(=O)N1CCN(c2nc3c(s2)CC(C(=O)Nc2cccc(Cl)c2)CC3)CC1 (centres undefined) |
| 647 | Cc1noc(C)c1S(=O)(=O)N1CCCCC1c1nncn1C (centres undefined) |
| 804 | Cc1ccc(NC(=O)C2CCN(S(=O)(=O)c3cc(C(=O)N(C)C)cs3)CC2)c(C)c1 |
| 900 | O=C(Cn1cc(S(=O)(=O)N2CCCCCC2)ccc1=O)N1CCCc2ccccc21 |
| 851 | CC(C)CN(CC1CN(C(=O)COc2ccccc2)CCO1)C(=O)c1ccccc1 (centres undefined) |

| SMILES | RP-LC retention time [s] |
| --- | --- |
| O=C(CN1CC=C(c2cnn(-c3ccccc3)c2)CC1)Nc1ccccc1Cl | 690 |
